# Measurements from US11655246B2, “Aminothiazole compounds as inhibitors of CTPS1” (STEP PHARMA S.A.S., priority 2017, dated 2023).
# Structures can show the parent of a compound that is named as a salt.
# Molecular target: T1, human CTPS1 (Homo sapiens, UniProt P17812)
# T1 construct: purchased Proteros biostructures GmbH
# T1 sequence (P17812 1-591): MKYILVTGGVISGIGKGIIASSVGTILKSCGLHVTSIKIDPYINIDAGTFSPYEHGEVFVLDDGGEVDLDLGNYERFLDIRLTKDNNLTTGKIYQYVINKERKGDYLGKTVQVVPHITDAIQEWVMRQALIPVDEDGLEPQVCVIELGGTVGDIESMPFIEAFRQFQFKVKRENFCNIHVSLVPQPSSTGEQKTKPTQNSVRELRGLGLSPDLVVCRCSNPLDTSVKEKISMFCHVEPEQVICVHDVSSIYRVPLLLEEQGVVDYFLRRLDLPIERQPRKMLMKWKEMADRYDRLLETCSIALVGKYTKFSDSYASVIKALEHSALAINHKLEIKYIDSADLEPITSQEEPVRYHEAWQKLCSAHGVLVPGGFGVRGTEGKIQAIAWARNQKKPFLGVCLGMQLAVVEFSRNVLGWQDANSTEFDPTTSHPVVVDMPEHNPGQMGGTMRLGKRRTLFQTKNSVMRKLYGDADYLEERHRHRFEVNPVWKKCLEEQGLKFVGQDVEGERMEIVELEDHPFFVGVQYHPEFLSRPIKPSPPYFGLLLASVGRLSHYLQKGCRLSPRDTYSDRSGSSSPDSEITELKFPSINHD
# Test: Human CTPS1 enzyme inhibition (ADP-Glo Max assay)
# Assay type: biochemical
# Conditions: Table 18, additional potency data, 25° C., read-out: CTPS1 (Human CTPS1 Enzyme Inhibition data grouped by potency range)
# Outline: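 ADP-Glo Max luminescence detection of ATP-to-ADP conversion by the enzyme, in 50 mM Tris, 10 mM MgCl2, 0.01% Tween-20, pH 8.0, with 2 mM L-cysteine added fresh. Enzyme preincubated with compound 10 minutes at 25° C. Percentage inhibition calculated per compound concentration.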
row,SMILES,IC50 [nM]
1,"COCCC(C(=O)Nc1ccc(-c2cncc(OC(C)C)n2)cc1F)c1csc(NS(=O)(=O)C2CC2)n1 (stereo not drawn) [T400, 2-(2-(cyclopropanesulfonamido)thiazol-4-yl)-N-(2-fluoro-4-(6-isopropoxypyrazin-2-yl)phenyl)-4-methoxybutanamide]",< 100
2,"CCC(C(=O)Nc1ccc(-c2cncc(C(C)C)n2)cn1)c1csc(NS(=O)(=O)C2CC2)n1 (stereo not drawn) [T401, 2-(2-(cyclopropanesulfonamido)thiazol-4-yl)-N-(5-(6-isopropylpyrazin-2-yl)pyridin-2-yl)butanamide]",100 to 1000
3,"CCC(C(=O)Nc1ccc(-c2cncc(C(C)(C)OC)n2)cn1)c1csc(NS(=O)(=O)C2CC2)n1 (stereo not drawn) [T402, 2-(2-(cyclopropanesulfonamido)thiazol-4-yl)-N-(5-(6-(2-methoxypropan-2-yl)pyrazin-2-yl)pyridin-2-yl)butanamide]",1000 to 10000
4,"CCC(C(=O)Nc1ccc(-c2cncc(C(C)(C)OC)n2)cc1F)c1csc(NS(=O)(=O)C2CC2)n1 (stereo not drawn) [T403, 2-(2-(cyclopropanesulfonamido)thiazol-4-yl)-N-(2-fluoro-4-(6-(2-methoxypropan-2-yl)pyrazin-2-yl)phenyl)butanamide]",100 to 1000
5,"CCC(C(=O)Nc1ccc(-c2cncc(C#N)n2)cc1F)c1csc(NS(=O)(=O)C2CC2)n1 (stereo not drawn) [T404, N-(4-(6-cyanopyrazin-2-yl)-2-fluorophenyl)-2-(2-(cyclopropanesulfonamido)thiazol-4-yl)butanamide]",100 to 1000
6,"CCc1cncc(-c2ccc(NC(=O)C(CC)c3csc(NS(=O)(=O)C4CC4)n3)c(F)c2)n1 (stereo not drawn) [T405, 2-(2-(cyclopropanesulfonamido)thiazol-4-yl)-N-(4-(6-ethylpyrazin-2-yl)-2-fluorophenyl)butanamide]",< 100
7,"CCC(C(=O)Nc1ccc(-c2cncc(C(C)(C)OC)n2)cc1)c1csc(NS(=O)(=O)C2CC2)n1 (stereo not drawn) [T406, 2-(2-(cyclopropanesulfonamido)thiazol-4-yl)-N-(4-(6-(2-methoxypropan-2-yl)pyrazin-2-yl)phenyl)butanamide]",100 to 1000
8,"CCOc1cncc(-c2ccc(NC(=O)C(NC(=O)OC(C)(C)C)c3csc(NS(=O)(=O)C4CC4)n3)cc2)n1 (stereo not drawn) [T407, tert-butyl (1-(2-(cyclopropanesulfonamido)thiazol-4-yl)-2-((4-(6-ethoxypyrazin-2-yl)phenyl)amino)-2-oxoethyl)carbamate]",< 100
9,"COC(C(=O)Nc1ccc(-c2cncc(C(F)(F)F)n2)cc1F)c1csc(NS(=O)(=O)C2CC2)n1 (stereo not drawn) [T408, 2-(2-(cyclopropanesulfonamido)thiazol-4-yl)-N-(2-fluoro-4-(6-(trifluoromethyl)pyrazin-2-yl)phenyl)-2-methoxyacetamide]",< 100
10,"CCOc1cncc(-c2ccc(NC(=O)C(OC)c3csc(NS(=O)(=O)C4CC4)n3)c(F)c2)n1 (stereo not drawn) [T409, 2-(2-(cyclopropanesulfonamido)thiazol-4-yl)-N-(4-(6-ethoxypyrazin-2-yl)-2-fluorophenyl)-2-methoxyacetamide]",< 100
11,"COC(C(=O)Nc1ccc(-c2cncc(OC(C)C)n2)cc1)c1csc(NS(=O)(=O)C2CC2)n1 (stereo not drawn) [T411, 2-(2-(cyclopropanesulfonamido)thiazol-4-yl)-N-(4-(6-isopropoxypyrazin-2-yl)phenyl)-2-methoxyacetamide]",< 100
12,"NC(C(=O)Nc1ccc(-c2cncc(C(F)(F)F)n2)cn1)c1csc(NS(=O)(=O)C2CC2)n1 (stereo not drawn) [T417, 2-Amino-2-(2-(cyclopropanesulfonamido)thiazol-4-yl)-N-(5-(6-(trifluoromethyl)pyrazin-2-yl)pyridin-2-yl)acetamide hydrochloride]",100 to 1000
13,"NC(C(=O)Nc1ccc(-c2cncc(C(F)(F)F)n2)cc1F)c1csc(NS(=O)(=O)C2CC2)n1 (stereo not drawn) [T418, 2-Amino-2-(2-(cyclopropanesulfonamido)thiazol-4-yl)-N-(2-fluoro-4-(6-(trifluoromethyl)pyrazin-2-yl)phenyl)acetamide]",100 to 1000
14,"CCOc1cncc(-c2ccc(NC(=O)C(N)c3csc(NS(=O)(=O)C4CC4)n3)c(F)c2)n1 (stereo not drawn) [T419, 2-Amino-2-(2-(cyclopropanesulfonamido)thiazol-4-yl)-N-(4-(6-ethoxypyrazin-2-yl)-2-fluorophenyl)acetamide hydrochloride]",< 100
15,"CN(C)C(C(=O)Nc1ccc(-c2cncc(C(F)(F)F)n2)cc1F)c1csc(NS(=O)(=O)C2CC2)n1 (stereo not drawn) [T420, 2-(2-(Cyclopropanesulfonamido)thiazol-4-yl)-2-(dimethylamino)-N-(2-fluoro-4-(6-(trifluoromethyl)pyrazin-2-yl)phenyl)acetamide]",< 100
16,"CCOc1cncc(-c2ccc(NC(=O)C(c3csc(NS(=O)(=O)C4CC4)n3)N(C)C)c(F)c2)n1 (stereo not drawn) [T421, 2-(2-(Cyclopropanesulfonamido)thiazol-4-yl)-2-(dimethylamino)-N-(4-(6-ethoxypyrazin-2-yl)-2-fluorophenyl)acetamide]",< 100
17,CCOc1cncc(-c2ccc(NC(=O)C(C)(C)c3csc(NS(=O)(=O)CC4CC4)n3)c(F)c2)n1 [T433],< 100
18,CCOc1cncc(-c2cnc(NC(=O)C(CCOC)c3csc(NS(=O)(=O)C4CC4)n3)c(F)c2)n1 (stereo not drawn) [T435],< 100
19,CCOc1cncc(-c2ccc(NC(=O)C(CCOC)c3csc(NS(=O)(=O)C4CC4)n3)nc2)n1 (stereo not drawn) [T436],< 100
20,COCCC(C(=O)Nc1ccc(-c2cncc(C(F)(F)F)n2)cc1)c1csc(NS(=O)(=O)C2CC2)n1 (stereo not drawn) [T437],< 100

row,SMILES,IC50 [nM]
1,CCOc1cncc(-c2cnc(NC(=O)C(CC)c3csc(NS(=O)(=O)C4CC4)n3)c(C)c2)n1 (stereo not drawn) [T438],< 100
2,CCOc1cncc(-c2ccc(NC(=O)C(CC)c3csc(NS(=O)(=O)C4CC4)n3)c(Cl)c2)n1 (stereo not drawn) [T439],< 100
3,CCOc1cncc(-c2ccc(NC(=O)C(CC)c3csc(NS(=O)(=O)C4CC4)n3)c(C#N)c2)n1 (stereo not drawn) [T440],< 100
4,CCOc1cncc(-c2ccc(NC(=O)C(CC)c3csc(NS(=O)(=O)C4CC4)n3)c(C)c2)n1 (stereo not drawn) [T441],< 100
5,CCOc1cncc(-c2ccc(NC(=O)C(CC)c3csc(NS(=O)(=O)C4CC4)n3)c(OC(F)(F)F)c2)n1 (stereo not drawn) [T442],< 100
6,CCOc1cncc(-c2ccc(NC(=O)C(CC)c3csc(NS(=O)(=O)C4CC4)n3)c(OC)c2)n1 (stereo not drawn) [T443],< 100
7,"CCNc1cncc(-c2ccc(NC(=O)C(CC)c3csc(NS(=O)(=O)C4CC4)n3)cc2)n1 (stereo not drawn) [T444, 2-(2-(Cyclopropanesulfonamido)thiazol-4-yl)-N-(4-(6-(ethylamino)pyrazin-2-yl)phenyl)butanamide]",< 100
8,CCOc1cncc(-c2cnc(NC(=O)C(OC)c3csc(NS(=O)(=O)C4CC4)n3)c(F)c2)n1 (stereo not drawn) [T445],< 100
9,CCOc1cncc(-c2ccc(NC(=O)C(OC)c3csc(NS(=O)(=O)C4CC4)n3)nc2)n1 (stereo not drawn) [T446],< 100
10,COC(C(=O)Nc1ccc(-c2cncc(F)c2)cc1C(F)(F)F)c1csc(NS(=O)(=O)C2CC2)n1 (stereo not drawn) [T447],< 100
11,COC(C(=O)Nc1ccc(-c2cncc(C(F)(F)F)c2)cc1F)c1csc(NS(=O)(=O)C2CC2)n1 (stereo not drawn) [T448],< 100
12,CCOc1cncc(-c2ccc(NC(=O)C(OC)c3csc(NS(=O)(=O)C4CC4)n3)c(C(F)(F)F)c2)n1 (stereo not drawn) [T449],< 100
13,CCOc1cncc(-c2ccc(NC(=O)C(OC)c3csc(NS(=O)(=O)C4CC4)n3)c(Cl)c2)n1 (stereo not drawn) [T450],< 100
14,CCOc1cncc(-c2ccc(NC(=O)C(OC)c3csc(NS(=O)(=O)C4CC4)n3)c(C#N)c2)n1 (stereo not drawn) [T451],< 100
15,COC(C(=O)Nc1ccc(-c2cncc(C(F)(F)F)n2)cc1F)c1csc(NS(C)(=O)=O)n1 (stereo not drawn) [T452],< 100
16,CCOc1cncc(-c2cc(F)c(NC(=O)C(OC)c3csc(NS(=O)(=O)C4CC4)n3)c(F)c2)n1 (stereo not drawn) [T453],< 100
17,CCOc1cncc(-c2ccc(NC(=O)C(OC)c3csc(NS(=O)(=O)C4CC4)n3)c(OC(F)(F)F)c2)n1 (stereo not drawn) [T454],< 100
18,CCOc1cncc(-c2ccc(NC(=O)C(OC)c3csc(NS(C)(=O)=O)n3)cc2)n1 (stereo not drawn) [T455],< 100
19,COc1cncc(-c2ccc(N3CCC(c4csc(NS(=O)(=O)C5CC5)n4)C3=O)cc2)c1 (stereo not drawn) [T463],100 to 1000
